The record followed here is patent publication US20130102595A1 (Curis, Inc., priority 2011, published 2013).

Data set [1] deals with T1, PI3Kα (p110α/p85α) (Homo sapiens, UniProt P42336).
T1 construct: GST (N); made in house; host or cells: Baculovirus-infected Sf9 cells
Put plainly: PI3Kα ADP-Glo assay. It is filed as biochemical. As to conditions: 20 μM PIP2, 10 μM ATP, 30 minutes. Summed up:
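Recombinant full-length human GST-p110α/His-p85α, co-expressed in Sf9 cells, was incubated 30 min at room temperature with 20 μM PIP2 and 10 μM ATP. The buffer was 50 mM HEPES pH 7.4, 150 mM NaCl, 5 mM MgCl2, 1 mM DTT, 3 µM orthovanadate and 0.5% DMSO. ADP formed was detected by ADP-Glo luminescence.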
In general terms: ADP-Glo turns the ADP formed in a reaction into a luminescent signal.

Data set [2] concerns the target T2, mTor serine/threonine protein kinase (Homo sapiens, UniProt P42345).
T2 construct: FLAG; made in house; host or cells: Baculovirus expression system in Sf21 cells
Put plainly: mTor kinase radioisotope assay. As to conditions: 70 uM ATP, 40 minutes; read-out: m-TOR IC50. It is filed as biochemical. The protocol: (F) an In Vitro Assay which-Determines the Ability of a Test Compound to Inhibit mTor Serine/Threonine Protein Kinase.
The ability of compounds to inhibit mTor activity was assayed using standard radioisotope assay for kinase. Briefly, FLAG-tagged, recombinant full-length human mTor (GenBank accession No. NM_004958) was expressed using baculovirus expression system in Sf21 cells and purified using antibody affinity column. Purified enzyme was incubated with c-terminal fragment of p70S6K as it's substrate in the presence of ATP. p33 ATP tracers were included in the assay to monitor the enzyme activity. Final assay condition was with 50 mM HEPES pH 7.5, 1 mM EGTA, 0.01% Tween 20, 2 mg/ml substrate, 3 mM Manganese Chloride and 70 uM of ATP and was carried out at room temperature for 40 minutes. The reaction was then stopped by the addition of 3% phosphoric acid solution. 10 ul of the reaction was spotted onto a P30 filtermat and washed three times for 5 minutes in 75 mM phosphoric acid and once in methanol prior to drying and scintillation counting. Different concentrations of compounds were added to reaction to assess the activity of compounds to inhibit mTor kinase. IC50 was calculated using Prism software with sigmoidal dose-response curve fitting.

In data set [3] the test system is HDACs (HeLa cell nuclear extracts). Put plainly: HDAC enzymatic activity, Biomol Color de Lys system. It is filed as biochemical. As to conditions: 1 hour, 25° C. In a few lines: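 HeLa nuclear extract incubated with serially diluted compound and […] artificial substrate in 50 mM Tris/Cl pH 8.0, 137 mM NaCl, 2.7 mM KCl, 1 mM MgCl2. Run 1 h at 25 °C, stopped with developer. Fluorescence read (ex 350-380, em 440-460 nm); IC50 from sigmoidal dose-response fit.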

Data set [4] deals with WiDr. In words: Cell proliferation assay (CellTiter-Glo). Particulars: Homo sapiens, Colon, 72 hours, 0.5% fetal bovine serum, read-out: antiproliferative activity IC50, WiDr. It is filed as cell-based. The protocol: (§1) Cell Proliferation Assay:
(§2) Cancer cell lines were plated at 5,000 to 10,000 per well in 96-well flat bottomed plates with various concentration of compounds. The cells were incubated with compounds for 72 hours in the presence of 0.5% of fetal bovine serum. Growth inhibition was accessed by adenosine triphosphate (ATP) content assay using Promega CellTiter-Glo kit. Promega CellTiter-Glo kit is an ATP monitoring system based on firefly luciferase. Briefly, 16 μl of mammalian cell lysis and substrate solution was added to 84 μl of culture medium per well to lyse the cells and stabilize the ATP. The mixture was shaken and incubated for 30 minutes and subsequently the luminescence was measured.
For orientation: In ATP-based viability assays light output follows the ATP content of the culture.

For data set [5], the system named is Calu6. Put plainly: Cell proliferation assay (CellTiter-Glo). The class given is cell-based. Particulars: Homo sapiens, Calu-6; NSCLC; 72 hours, 0.5% fetal bovine serum; read-out: antiproliferative activity IC50, Calu6. Here is the method:
as §1, §2

The structures appear in SMILES notation.

T1 sequence (P42336 whole entry): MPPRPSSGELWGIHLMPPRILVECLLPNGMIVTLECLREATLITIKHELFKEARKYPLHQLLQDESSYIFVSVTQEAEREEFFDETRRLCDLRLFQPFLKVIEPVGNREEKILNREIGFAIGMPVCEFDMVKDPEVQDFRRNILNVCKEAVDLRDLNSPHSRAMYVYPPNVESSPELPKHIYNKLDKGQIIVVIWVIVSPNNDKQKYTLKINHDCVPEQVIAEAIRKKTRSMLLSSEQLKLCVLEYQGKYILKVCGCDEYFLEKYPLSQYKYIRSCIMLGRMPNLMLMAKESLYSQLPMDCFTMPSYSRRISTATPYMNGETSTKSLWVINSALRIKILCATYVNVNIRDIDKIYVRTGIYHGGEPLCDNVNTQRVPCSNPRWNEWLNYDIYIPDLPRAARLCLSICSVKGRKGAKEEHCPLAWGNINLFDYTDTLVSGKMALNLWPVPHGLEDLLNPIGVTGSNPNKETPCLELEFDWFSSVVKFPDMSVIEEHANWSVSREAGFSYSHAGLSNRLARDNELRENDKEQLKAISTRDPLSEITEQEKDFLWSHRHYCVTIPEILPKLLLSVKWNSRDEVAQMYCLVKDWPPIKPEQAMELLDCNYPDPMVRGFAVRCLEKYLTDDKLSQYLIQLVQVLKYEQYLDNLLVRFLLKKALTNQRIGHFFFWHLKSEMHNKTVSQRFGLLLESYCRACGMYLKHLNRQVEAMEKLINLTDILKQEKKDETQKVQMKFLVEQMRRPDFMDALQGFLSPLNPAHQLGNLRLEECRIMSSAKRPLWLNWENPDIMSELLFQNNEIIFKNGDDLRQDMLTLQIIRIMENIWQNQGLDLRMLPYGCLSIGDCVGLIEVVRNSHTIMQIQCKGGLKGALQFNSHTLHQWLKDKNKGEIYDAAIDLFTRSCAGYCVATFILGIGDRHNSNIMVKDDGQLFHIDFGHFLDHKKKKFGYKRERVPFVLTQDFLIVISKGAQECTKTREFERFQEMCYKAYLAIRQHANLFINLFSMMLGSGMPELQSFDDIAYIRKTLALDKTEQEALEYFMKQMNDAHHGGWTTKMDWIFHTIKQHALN
T1 sequence (P27986 whole entry partner): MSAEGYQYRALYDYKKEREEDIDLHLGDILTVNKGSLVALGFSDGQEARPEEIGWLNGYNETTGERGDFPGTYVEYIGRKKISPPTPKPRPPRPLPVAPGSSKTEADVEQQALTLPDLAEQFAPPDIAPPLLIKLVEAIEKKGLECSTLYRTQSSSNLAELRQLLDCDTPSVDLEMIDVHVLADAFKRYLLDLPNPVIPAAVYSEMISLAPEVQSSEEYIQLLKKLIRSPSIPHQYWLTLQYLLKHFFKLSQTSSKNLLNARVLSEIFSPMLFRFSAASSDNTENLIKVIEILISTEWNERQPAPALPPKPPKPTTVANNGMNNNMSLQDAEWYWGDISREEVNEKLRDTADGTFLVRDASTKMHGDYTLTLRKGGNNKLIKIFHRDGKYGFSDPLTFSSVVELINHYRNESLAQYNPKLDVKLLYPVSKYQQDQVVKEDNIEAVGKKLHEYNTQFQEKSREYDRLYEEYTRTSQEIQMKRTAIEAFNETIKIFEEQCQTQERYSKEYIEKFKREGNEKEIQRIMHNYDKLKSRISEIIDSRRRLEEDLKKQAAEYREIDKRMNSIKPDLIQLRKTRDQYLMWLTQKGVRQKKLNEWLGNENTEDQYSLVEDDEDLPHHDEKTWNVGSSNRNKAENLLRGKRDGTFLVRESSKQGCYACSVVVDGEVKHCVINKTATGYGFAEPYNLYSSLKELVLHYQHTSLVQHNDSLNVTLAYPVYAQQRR

A word on the IC50: it is the concentration needed to halve the response being measured. Broadly, the melting point is the temperature of the solid-liquid transition. The compound `O=C(CCCCCNCc1cc2nc(-c3cccc4[nH]ncc34)nc(N3CCOCC3)c2s1)NO` [Compound 43, 6-((2-(1H-indazol-4-yl)-4-morpholinothieno[3,2-d]pyrimidin-6-yl)methylamino)-N-hydroxyhexanamide] had a melting point of 128 to 130 °C. In data set [1], this compound returned an IC50 of 1000 to 10000 nM. Besides, the IC50 in data set [2] lay in the range of 1000 to 10000 nM. In data set [3], this compound returned an IC50 of less than 100 nM.

`CC(=O)Nc1ccc(-c2nc(N3CCOCC3)c3sc(CN(C)c4ncc(C(=O)NO)cn4)cc3n2)cc1` [Compound 157, 2-(((2-(4-acetamidophenyl)-4-morpholinothieno[3,2-d]pyrimidin-6-yl)methyl)(methyl)amino)-N-hydroxypyrimidine-5-carboxamide]: the melting point fell in the range of 228 to 230 °C. In data set [1], this compound gave an IC50 of less than 100 nM. Besides, in data set [4], the IC50 fell in the range of 100 to 1000 nM. Besides, in data set [5], the IC50 lay in the range of 10 to 100 nM. Further, the IC50 in data set [2] is less than 100 nM. For the same compound, in data set [3], the IC50 was less than 100 nM.

Compound `C[C@@H](O)c1cccc(-c2nc(N3CCOCC3)c3sc(CN(C)c4ncc(C(=O)NO)cn4)cc3n2)c1` [Compound 297, (R)—N-Hydroxy-2-(((2-(3-(1-hydroxyethyl)phenyl)-4-morpholinothieno[3,2-d]pyrimidin-6-yl)methyl)(methyl)amino)pyrimidine-5-carboxamide] returned a melting point of 169 to 173 °C. For the same compound, in data set [1], the IC50 fell in the range of 100 to 1000 nM. For the same compound, the IC50 in data set [2] was in the range of 100 to 1000 nM. In addition, the IC50 in data set [3] is less than 100 nM.

`CN(CCCCC(=O)NO)Cc1cc2nc(-c3cccc4[nH]ncc34)nc(N3CCOCC3)c2s1` [Compound 102, 5-(((2-(1H-indazol-4-yl)-4-morpholinothieno[3,2-d]pyrimidin-6-yl)methyl)(methyl)amino)-N-hydroxypentanamide] displayed a melting point of 120 to 122 °C. In data set [1], the IC50 is 100 to 1000 nM. Also, the IC50 in data set [2] was in the range of 100 to 1000 nM. Also, in data set [3], the IC50 lay within 100 to 1000 nM.

`CN(Cc1cc2nc(-c3ccc4[nH]c(C(F)(F)F)nc4c3)nc(N3CCOCC3)c2s1)c1ncc(C(=O)NO)cn1` [Compound 318] displayed a melting point greater than 300 °C. This compound gave an IC50 in data set [1] of less than 100 nM. Besides, in data set [2], the IC50 fell in the range of 100 to 1000 nM. In addition, the IC50 in data set [3] was less than 100 nM.

In the case of `CN(C)c1ncc(-c2nc(N3CCOCC3)c3sc(CN(C)c4ncc(C(=O)NO)cn4)cc3n2)cn1` [Compound 117, 2-(((2-(2-(dimethylamino)pyrimidin-5-yl)-4-morpholinothieno[3,2-d]pyrimidin-6-yl)methyl)(methyl)amino)-N-hydroxypyrimidine-5-carboxamide], the melting point lay within 200 to 206 °C. Moreover, the 50% inhibitory concentration (IC50) in data set [1] was less than 100 nM. For the same compound, in data set [2], the IC50 lay within 1000 to 10000 nM. In data set [3], this compound came in with an IC50 of less than 100 nM.

`CN(CCCC(=O)NO)Cc1cc2nc(-c3cccc4[nH]ncc34)nc(N3CCOCC3)c2s1` [Compound 101, 4-(((2-(1H-indazol-4-yl)-4-morpholinothieno[3,2-d]pyrimidin-6-yl)methyl)(methyl)amino)-N-hydroxybutanamide] displayed a melting point of 115 to 118 °C. This compound also returned an IC50 in data set [1] of 100 to 1000 nM. Moreover, the IC50 in data set [2] lay within 100 to 1000 nM. Moreover, the IC50 in data set [3] is greater than 10000 nM.

Consider `CN(Cc1cc2nc(-c3cccnc3)nc(N3CCOCC3)c2s1)c1ncc(C(=O)NO)cn1` [Compound 109, N-hydroxy-2-(methyl((4-morpholino-2-(pyridin-3-yl)thieno[3,2-d]pyrimidin-6-yl)methyl)amino)pyrimidine-5-carboxamide], for which the melting point lay in the range of 160 to 164 °C. The compound further came in with an IC50 in data set [1] of less than 100 nM. The IC50 in data set [2] fell in the range of 100 to 1000 nM. This compound also registered an IC50 in data set [3] of less than 100 nM.

Turning to `O=C(NO)c1cnc(N2CCC(CNCc3cc4nc(-c5cccc6[nH]ncc56)nc(N5CCOCC5)c4s3)CC2)nc1` [Compound 15, 2-(4-(((2-(1H-indazol-4-yl)-4-morpholinothieno[3,2-d]pyrimidin-6-yl)methylamino)methyl)piperidin-1-yl)-N-hydroxypyrimidine-5-carboxamide], the melting point was 170 to 172 °C. Further, in data set [1], the IC50 was 100 to 1000 nM. Besides, the IC50 in data set [2] was greater than 10000 nM. This compound yielded an IC50 in data set [3] of less than 100 nM.

In turn, `CN(Cc1cc2nc(-c3ccc(N)c(CO)c3)nc(N3CCOCC3)c2s1)c1ncc(C(=O)NO)cn1` [Compound 285, 2-(((2-(4-Amino-3-(hydroxymethyl)phenyl)-4-morpholinothieno[3,2-d]pyrimidin-6-yl)methyl)(methyl)amino)-N-hydroxypyrimidine-5-carboxamide] gave a melting point of 195 to 200 °C. Further, the IC50 in data set [1] was less than 100 nM. In addition, in data set [2], the IC50 was less than 100 nM. For the same compound, in data set [3], the IC50 was less than 100 nM.

`CN(Cc1cc2nc(-c3cc(F)cc4[nH]ncc34)nc(N3CCOCC3)c2s1)c1ncc(C(=O)NO)cn1` [Compound 69, 2-(((2-(6-fluoro-1H-indazol-4-yl)-4-morpholinothieno[3,2-d]pyrimidin-6-yl)methyl)(methyl)amino)-N-hydroxypyrimidine-5-carboxamide] returned a melting point of 215 to 217 °C. The IC50 in data set [1] was less than 100 nM. In addition, the IC50 in data set [2] was in the range of 1000 to 10000 nM. Moreover, the IC50 in data set [3] was less than 100 nM.

Compound `CCc1ncc(-c2nc(N3CCOCC3)c3sc(CN(C)c4ncc(C(=O)NO)cn4)cc3n2)cn1` [Compound 121, 2-(((2-(2-ethylpyrimidin-5-yl)-4-morpholinothieno[3,2-d]pyrimidin-6-yl)methyl)(methyl)amino)-N-hydroxypyrimidine-5-carboxamide] had a melting point of 153 to 156 °C. In data set [1], this compound gave an IC50 of less than 100 nM. Besides, in data set [2], the IC50 was 1000 to 10000 nM. In data set [3], this compound displayed an IC50 of less than 100 nM.

As to `CN(Cc1cc2nc(-c3cnn(C)c3)nc(N3CCOCC3)c2s1)c1ncc(C(=O)NO)cn1` [Compound 246, N-Hydroxy-2-(methyl((2-(1-methyl-1H-pyrazol-4-yl)-4-morpholinothieno[3,2-d]pyrimidin-6-yl)methyl)amino)pyrimidine-5-carboxamide], the melting point was in the range of 164 to 169 °C. This compound also came in with an IC50 in data set [1] of 100 to 1000 nM. In addition, the IC50 in data set [2] is greater than 10000 nM. This compound also returned a concentration for half-maximal inhibition (IC50) in data set [3] of less than 100 nM.

With `CN(Cc1cc2nc(-c3cccc4[nH]ncc34)nc(N3CCOCC3)c2s1)CC1CCN(c2ncc(C(=O)NO)cn2)CC1` [Compound 16, 2-(4-((((2-(1H-indazol-4-yl)-4-morpholinothieno[3,2-d]pyrimidin-6-yl)methyl)(methyl)amino)methyl)piperidin-1-yl)-N-hydroxypyrimidine-5-carboxamide], the melting point lay in the range of 174 to 175 °C. The same compound registered a 50% inhibitory concentration (IC50) in data set [1] of less than 100 nM. Besides, in data set [2], the IC50 is 1000 to 10000 nM. The compound also gave an IC50 in data set [3] of 100 to 1000 nM.

The compound `CC(=O)NCc1ccc(-c2nc(N3CCOCC3)c3sc(CN(C)c4ncc(C(=O)NO)cn4)cc3n2)cc1` [Compound 136, 2-(((2-(4-(acetamidomethyl)phenyl)-4-morpholinothieno[3,2-d]pyrimidin-6-yl)methyl)(methyl)amino)-N-hydroxypyrimidine-5-carboxamide] came in with a melting point of 178 to 180 °C. In addition, in data set [1], the IC50 is greater than 10000 nM. Further, the IC50 in data set [2] is greater than 10000 nM.

In the case of `CN(Cc1cc2nc(-c3ccc(OCCO)nc3)nc(N3CCOCC3)c2s1)c1ncc(C(=O)NO)cn1` [Compound 256, N-Hydroxy-2-(((2-(6-(2-hydroxyethoxy)pyridin-3-yl)-4-morpholinothieno[3,2-d]pyrimidin-6-yl)methyl)(methyl)amino)pyrimidine-5-carboxamide], the melting point was 143 to 145 °C. The compound further displayed an IC50 in data set [1] of less than 100 nM. Moreover, the IC50 in data set [2] is greater than 10000 nM. The compound further gave an IC50 in data set [3] of less than 100 nM.
